From PMC2719696, “Kinetics and Cellular Site of Glycolipid Loading Control the Outcome of Natural Killer T Cell Activation” (Immunity, 2009)

Experiments:
[1] = tested on: detergent-resistant membrane microdomains; assay: Flow cytometry assay of αGalCer-mCD1d complex association with detergent-resistant membrane microdomains (JAWS II cells); type: cell-based, mouse; conditions: 0.1% Triton X-100
Method: The scale bar represents 10 μm. Results shown for individual cells were typical of >20 cells analyzed for each parameter with or without incubation with the indicated glycolipids. (B) Quantitation of colocalization shown in (A) for multiple randomly selected individual cells. Pearson correlation coefficient for the distribution of pixel densities for K253 or L363 fluorescence compared to cholera toxin B-specific fluorescence are plotted for each individual cell analyzed. Values for p were determined by one-way ANOVA. (C) Flow cytometry assay for αGalCer-mCD1d complex association with detergent-resistant membrane microdomains. […] Baseline fluorescence levels were recorded for 15 s, after which Triton X-100 was added to 0.1% (arrow) and recording was resumed for another ∼60 s. Each symbol indicates mean fluorescence intensity (MFI) averaged over 1 s of recording. […]
Another property of lipid rafts is their resistance to solubilization by nonionic detergents due to their enrichment in cholesterol, sphingomyelin, and saturated acyl chains ([Pike, 2008]). To assess the localization of αGalCer-mCD1d complexes in detergent insoluble microdomains, we used a flow-cytometry-based assay that quantitates the resistance of lipid-raft-associated transmembrane proteins to extraction by low concentrations of Triton X-100 ([Gombos et al., 2004a; Peng et al., 2007]). […]

mCD1d = molecular target: T1, mCD1d (Mus musculus, UniProt P11609); assay: In vitro CD1d loading assay with immobilized mCD1d, saposins or Triton X-100, DN32.D3 hybridoma IL-2 readout; type: biochemical; conditions: for effect of all four saposins on mCD1d loading: saposins 10 μg/ml
T1 sequence (P11609 22-305 limits assumed): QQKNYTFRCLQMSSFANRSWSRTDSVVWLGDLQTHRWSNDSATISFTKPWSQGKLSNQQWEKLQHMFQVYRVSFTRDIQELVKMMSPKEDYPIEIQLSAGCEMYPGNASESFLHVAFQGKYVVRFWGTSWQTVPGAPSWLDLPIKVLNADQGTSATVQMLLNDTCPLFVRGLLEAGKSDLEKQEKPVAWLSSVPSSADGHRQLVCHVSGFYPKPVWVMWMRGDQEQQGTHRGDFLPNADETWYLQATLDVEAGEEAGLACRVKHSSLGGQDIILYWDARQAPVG
T1 sequence (P01887 21-119 partner): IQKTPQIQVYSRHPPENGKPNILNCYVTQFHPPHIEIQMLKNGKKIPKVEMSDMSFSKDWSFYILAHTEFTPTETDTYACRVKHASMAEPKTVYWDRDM
Method: Figure 5 Lack of Detergent-like Cofactor Dependence of Th2 Cell-Type Cytokine-Biasing αGalCer Analogs (A) Glycolipids were incubated for 24 hr at 37°C with murine CD1d proteins in the absence (top row) or presence (bottom row) of 0.05% Triton X-100. The resulting complexes were assembled as tetramers and used for staining mouse iNKT hybridoma DN3A4.1-2. The dashed line histograms show background staining with unloaded tetramers, and the bold histograms show staining with glycolipid loaded tetramers. (B) The same analysis as in (A) except with human CD1d tetramers, which were also used for DN3A4.1-2 staining. (C) Glycolipids at various concentrations were incubated with immobilized mCD1d protein for 2 hr in pH 7.0 or pH 5.0 buffers with no additives (medium) or in the same buffers containing the indicated purified recombinant saposins (10 μg/ml) or Triton X-100 (0.05%). After washing, DN32.D3 iNKT hybridoma cells were added and supernatant concentrations of IL-2 were determined after an additional 14 hr of incubation. All results shown (A, B, and C) were representative of at least two independent experiments.
To extend these observations to a more physiological model, we tested the effects of purified recombinant saposin A, B, C, and D proteins on loading of αGalCer analogs.
Recombinant murine CD1d proteins at 4 μg/ml in 50 μl PBS were coated on the surfaces of microtiter plate wells for 2 hr at 37°C and then washed with PBS for removal of unbound proteins. Subsequently, various concentrations of glycolipids in 0.1 M sodium phosphate buffer (pH 7.0) or 0.1 M sodium citrate buffer (pH 5.0) containing 150 mM NaCl were incubated with or without 0.05% Triton X-100 or recombinant purified human saposins A, B, C, or D at 10 μg/ml for another 2 hr at 37°C. Saposins were produced and purified as described ([Yuan et al., 2007]). After extensive washing with PBS and media, 5 × 10^4 murine iNKT hybridoma DN32.D3 cells were added in 200 μl of complete medium and incubated at 37°C for 14 hr. Supernatants were analyzed for murine IL-2 by capture ELISA.

| Compound | extraction of mCD1d complexes (L363 staining) by detergent, in words [1] | effect of all four saposins on mCD1d loading (mCD1d; acidic pH) | effect of all four saposins on mCD1d loading (mCD1d; neutral pH) | cofactor dependence of mCD1d loading (mCD1d; recombinant mCD1d, iNKT hybridoma IL-2 readout) |
| --- | --- | --- | --- | --- |
| CCCCCCCCCCCCCCC(O)C(O)C(COC1OC(CO)C(O)C(O)C1O)NC(=O)CCCCCCCCC (centres unmarked) [αGalCer-C10:0] | mainly localized to detergent soluble nonraft domains | reduced mCD1d loading | only modest enhancement | – |
| CCCCCC=CCC=CCCCCCCCCCC(=O)NC(COC1OC(CO)C(O)C(O)C1O)C(O)C(O)CCCCCCCCCCCCCC (centres unmarked) [αGalCer-C20:2] | significant extraction by detergent | – | – | – |
| CCCCCCCCCCCCCCCCCCCCCCCCCC(=O)NC(COC1OC(CO)C(O)C(O)C1O)C(O)C(O)CCCCCCCCCCCCCC (centres unmarked) [αGalCer-C26:0, reference compound] | – | – | – | dependent either on the presence of detergent (0.1% Triton X-100) or on the presence of a purified saposin |
